Results taken from patent US10781472B2, “Systems and methods for determining cyclic nucleotide concentration and related pathway activation” (PROMEGA CORPORATION, priority 2005, dated 2020).

Assays:
[1] = molecular target: dopamine receptor D1 (DRD1) (Homo sapiens, UniProt P21728); conditions: 1 μg DRD1 plasma membranes, 15 min induction (FIG. 10)
Protocol: Plasma membranes (1 μg of protein in 25 μl of Stimulation Buffer) and 10 μM GDP were added to the wells of a 96-well plate and incubated at room temperature for 10 minutes. Twenty microliters of each compound dilution was added to specific wells. Induction was carried out for 15 minutes at room temperature followed by addition of 40 μl of PKA/Substrate Reagent. The reactions were allowed to incubate for an additional 20 minutes at room temperature followed by addition of 80 μl of Kinase-Glo™ Reagent. Luminescence was read 10 minutes after addition of the Kinase-Glo™ Reagent and output was recorded as relative light units (RLU) and plotted against forskolin concentration using GraphPad Prism® Software Version 4.0.

phosphodiesterase PDE V = phosphodiesterase PDE V (Homo sapiens, UniProt O76074); test: cGMP-PDE (PDE V) activity in the presence of inhibitor, PKA/Kinase-Glo luminescence; format: biochemical; conditions: 15 U PDE V, cGMP substrate, 30 min (FIG. 7B)
Protocol: A two-fold serial dilution of Zaprinast (20 μM) was made in Stop Buffer without IBMX and ATP, supplemented with 10 μM cGMP. An enzyme solution containing PDE V was also made so that every 12.5 μl of the enzyme solution contained 15 U (Stop Buffer without IBMX and ATP) of the enzyme. An aliquot (12.5 μl) of each dilution was added to the reaction wells and an equal amount of the phosphodiesterase PDEV enzyme solution was added to start the reaction. The plate was incubated for 30 min. at room temperature, followed by addition of 12.5 μl of Stop Buffer supplemented with 1.5 mM IBMX and 4 μM ATP to stop the reaction. An equal volume of a PKA/substrate reagent containing 100 ng/well Holoenzyme-R-II α protein kinase A, 40 μM Kemptide, 40 mM Tris HCl pH 7.5, 20 mM MgCl2, and 0.1 mg/ml BSA was added to each well, the plate was incubated for an additional 20 min., and 50 μl of Kinase-Glo™ Reagent was added.

[2] = molecular target: T1, Holoenzyme-R-II α protein kinase A (Homo sapiens, UniProt P13861); test: Side by side titration of cAMP and cGMP for activation of PKA; format: biochemical; conditions: FIG. 6
T1 construct: purchased BIAFFIN GmbH & Co., Kassel, Germany
T1 sequence (P13861 whole entry): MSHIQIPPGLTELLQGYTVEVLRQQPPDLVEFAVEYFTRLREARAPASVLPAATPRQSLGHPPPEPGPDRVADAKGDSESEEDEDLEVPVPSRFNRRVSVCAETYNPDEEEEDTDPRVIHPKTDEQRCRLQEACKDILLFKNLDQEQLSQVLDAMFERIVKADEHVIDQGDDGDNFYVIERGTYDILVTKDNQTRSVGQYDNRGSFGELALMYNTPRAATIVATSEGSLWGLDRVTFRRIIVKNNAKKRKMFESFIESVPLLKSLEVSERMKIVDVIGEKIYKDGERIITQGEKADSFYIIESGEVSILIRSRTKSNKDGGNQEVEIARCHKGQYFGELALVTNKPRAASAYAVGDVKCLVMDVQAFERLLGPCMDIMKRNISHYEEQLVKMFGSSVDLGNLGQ
Protocol: Two-fold serial dilutions of cAMP and cGMP (initial concentration of both 40 μM) were made in Stop Buffer without ATP and IBMX, but supplemented with 2 μM ATP. Twenty-five μl of the dilutions were aliquoted into white 96-well plates, followed by the addition of 25 μl of a PKA/substrate reagent containing 100 ng/well Holoenzyme-R-II α protein kinase A, 20 μM Kemptide, 40 mM Tris HCl pH 7.5, 20 mM MgCl2, and 0.1 mg/ml BSA. The reactions were allowed to incubate for 20 min. at room temperature, and 50 μl of Kinase-Glo™ Reagent was added followed by an additional 10 min. incubation. Luminescence was measured 10 min. after addition of the Kinase-Glo™ Reagent and output was recorded as RLUs (n=2) and plotted against cyclic nucleotide (cNMP) concentration using GraphPad Prism® Software Version 4.0.

dopamine receptor D1 (DRD1), sequence (P21728 whole entry): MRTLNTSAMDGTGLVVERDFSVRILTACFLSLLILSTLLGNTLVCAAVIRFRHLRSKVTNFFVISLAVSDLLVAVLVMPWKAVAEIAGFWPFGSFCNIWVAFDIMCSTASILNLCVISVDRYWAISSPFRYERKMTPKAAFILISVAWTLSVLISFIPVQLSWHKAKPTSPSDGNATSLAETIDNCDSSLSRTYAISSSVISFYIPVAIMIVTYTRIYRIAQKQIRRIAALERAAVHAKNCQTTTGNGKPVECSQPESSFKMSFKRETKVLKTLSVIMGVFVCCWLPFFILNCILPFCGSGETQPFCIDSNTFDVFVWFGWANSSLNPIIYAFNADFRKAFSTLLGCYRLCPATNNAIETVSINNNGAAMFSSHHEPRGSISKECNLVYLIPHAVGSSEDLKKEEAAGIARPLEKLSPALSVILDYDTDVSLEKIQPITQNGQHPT

Oc1cc2c(cc1O)C(c1ccccc1)CNCC2 (stereo not drawn) [SKF38393, 1-Phenyl-2,3,4,5-tetrahydro-(1H)-3-benzazepine-7,8-diol]
luminescent signal as agonist concentration increases (DRD1 activation) [1]: luminescent signal decreases

CCCOc1ccccc1-c1nc2nn[nH]c2c(=O)[nH]1 [Zaprinast]
relative light units as inhibitor amount increases (PDE V inhibition) (phosphodiesterase PDE V): relative light units decrease

Nc1nc2c(ncn2[C@@H]2O[C@@H]3COP(=O)(O)O[C@H]3[C@H]2O)c(=O)[nH]1 [cGMP, guanosine 3′, 5′cyclic monophosphate]
binding to regulatory subunits of PKA, affinity relative to cAMP [2]: lower affinity than that of cAMP
